In ChEMBL document CHEMBL1201862, “PubChem BioAssay data set” (2004):
Active and inactive are the calls of the source.

Key:
Assay type in all cases: functional
[1] = target: RAC-gamma serine/threonine-protein kinase (Homo sapiens, UniProt Q9Y243)
[2] = target: 5'-AMP-activated protein kinase catalytic subunit alpha-1 (Homo sapiens, UniProt Q13131)
[3] = target: T1, Serine/threonine-protein kinase D2 (Homo sapiens, UniProt Q9BZL6);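 further: measured against PRKD2 as one member of a kinome-wide kinase profiling panel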
T1 sequence (Q9BZL6 whole entry): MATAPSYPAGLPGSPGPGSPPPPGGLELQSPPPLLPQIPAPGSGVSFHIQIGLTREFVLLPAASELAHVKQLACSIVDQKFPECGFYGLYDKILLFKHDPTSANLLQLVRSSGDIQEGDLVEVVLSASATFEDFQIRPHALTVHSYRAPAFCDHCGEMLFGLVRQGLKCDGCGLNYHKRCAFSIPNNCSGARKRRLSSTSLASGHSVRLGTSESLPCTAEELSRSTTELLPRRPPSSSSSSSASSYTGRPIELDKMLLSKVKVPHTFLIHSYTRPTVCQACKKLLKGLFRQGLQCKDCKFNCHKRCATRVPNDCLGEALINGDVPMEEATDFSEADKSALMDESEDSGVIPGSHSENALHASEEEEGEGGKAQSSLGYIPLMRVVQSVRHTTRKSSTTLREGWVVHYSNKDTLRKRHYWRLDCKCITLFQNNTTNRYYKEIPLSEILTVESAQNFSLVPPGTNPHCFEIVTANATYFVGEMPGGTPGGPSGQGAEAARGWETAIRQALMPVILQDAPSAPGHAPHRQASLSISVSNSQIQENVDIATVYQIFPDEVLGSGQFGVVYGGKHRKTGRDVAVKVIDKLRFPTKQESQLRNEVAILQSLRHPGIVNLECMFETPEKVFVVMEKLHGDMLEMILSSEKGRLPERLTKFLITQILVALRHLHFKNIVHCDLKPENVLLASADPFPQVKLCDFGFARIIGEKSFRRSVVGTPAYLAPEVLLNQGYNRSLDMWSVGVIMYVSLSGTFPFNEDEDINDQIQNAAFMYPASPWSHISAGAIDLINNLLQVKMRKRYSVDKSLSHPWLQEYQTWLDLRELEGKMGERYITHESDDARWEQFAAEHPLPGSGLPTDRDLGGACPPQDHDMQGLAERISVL

[4] = target: Tyrosine-protein kinase SYK (Homo sapiens, UniProt P43405)
SRSF protein kinase 1 = SRSF protein kinase 1 (Homo sapiens, UniProt Q96SB4);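 further: measured as one member of a kinome-wide kinase profiling panel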
Chain of SRSF protein kinase 1 (Q96SB4 whole entry): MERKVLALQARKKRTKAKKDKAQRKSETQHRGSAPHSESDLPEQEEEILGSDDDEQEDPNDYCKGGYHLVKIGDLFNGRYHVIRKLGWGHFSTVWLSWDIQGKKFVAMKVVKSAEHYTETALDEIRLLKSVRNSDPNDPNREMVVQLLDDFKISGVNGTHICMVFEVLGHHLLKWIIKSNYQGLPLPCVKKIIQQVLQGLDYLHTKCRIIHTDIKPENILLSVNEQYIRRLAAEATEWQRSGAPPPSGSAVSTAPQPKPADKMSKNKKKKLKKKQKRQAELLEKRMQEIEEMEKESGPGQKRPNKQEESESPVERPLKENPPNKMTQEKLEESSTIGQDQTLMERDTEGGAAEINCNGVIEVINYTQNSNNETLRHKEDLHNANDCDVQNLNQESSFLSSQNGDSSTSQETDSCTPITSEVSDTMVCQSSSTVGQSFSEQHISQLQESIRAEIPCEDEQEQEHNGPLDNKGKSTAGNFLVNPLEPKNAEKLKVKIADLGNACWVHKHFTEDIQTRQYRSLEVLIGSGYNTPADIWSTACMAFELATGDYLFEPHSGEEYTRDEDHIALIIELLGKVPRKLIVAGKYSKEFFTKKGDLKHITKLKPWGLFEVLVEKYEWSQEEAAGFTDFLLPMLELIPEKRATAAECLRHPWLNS

[5] = target: MAP kinase-activated protein kinase 5 (Homo sapiens, UniProt Q8IW41);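 further: measured as one member of a kinome panel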
[6] = target: MAP kinase-activated protein kinase 2 (Homo sapiens, UniProt P49137);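 further: measured as one member of a kinome-wide kinase panel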
[7] = target: Fibroblast growth factor receptor 1 (Homo sapiens, UniProt P11362)
[8] = target: High affinity nerve growth factor receptor (Homo sapiens, UniProt P04629);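 further: NTRK1 tested as one member of a kinome-wide profiling panel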
[9] = target: Protein kinase C gamma type (Homo sapiens, UniProt P05129)
[10] = target: Receptor tyrosine-protein kinase erbB-2 (Homo sapiens, UniProt P04626); assay: Navigating the Kinome. Panel member name: ERBB2
[11] = target: Vascular endothelial growth factor receptor 2 (Homo sapiens, UniProt P35968)
Chain of Vascular endothelial growth factor receptor 2 (P35968 whole entry): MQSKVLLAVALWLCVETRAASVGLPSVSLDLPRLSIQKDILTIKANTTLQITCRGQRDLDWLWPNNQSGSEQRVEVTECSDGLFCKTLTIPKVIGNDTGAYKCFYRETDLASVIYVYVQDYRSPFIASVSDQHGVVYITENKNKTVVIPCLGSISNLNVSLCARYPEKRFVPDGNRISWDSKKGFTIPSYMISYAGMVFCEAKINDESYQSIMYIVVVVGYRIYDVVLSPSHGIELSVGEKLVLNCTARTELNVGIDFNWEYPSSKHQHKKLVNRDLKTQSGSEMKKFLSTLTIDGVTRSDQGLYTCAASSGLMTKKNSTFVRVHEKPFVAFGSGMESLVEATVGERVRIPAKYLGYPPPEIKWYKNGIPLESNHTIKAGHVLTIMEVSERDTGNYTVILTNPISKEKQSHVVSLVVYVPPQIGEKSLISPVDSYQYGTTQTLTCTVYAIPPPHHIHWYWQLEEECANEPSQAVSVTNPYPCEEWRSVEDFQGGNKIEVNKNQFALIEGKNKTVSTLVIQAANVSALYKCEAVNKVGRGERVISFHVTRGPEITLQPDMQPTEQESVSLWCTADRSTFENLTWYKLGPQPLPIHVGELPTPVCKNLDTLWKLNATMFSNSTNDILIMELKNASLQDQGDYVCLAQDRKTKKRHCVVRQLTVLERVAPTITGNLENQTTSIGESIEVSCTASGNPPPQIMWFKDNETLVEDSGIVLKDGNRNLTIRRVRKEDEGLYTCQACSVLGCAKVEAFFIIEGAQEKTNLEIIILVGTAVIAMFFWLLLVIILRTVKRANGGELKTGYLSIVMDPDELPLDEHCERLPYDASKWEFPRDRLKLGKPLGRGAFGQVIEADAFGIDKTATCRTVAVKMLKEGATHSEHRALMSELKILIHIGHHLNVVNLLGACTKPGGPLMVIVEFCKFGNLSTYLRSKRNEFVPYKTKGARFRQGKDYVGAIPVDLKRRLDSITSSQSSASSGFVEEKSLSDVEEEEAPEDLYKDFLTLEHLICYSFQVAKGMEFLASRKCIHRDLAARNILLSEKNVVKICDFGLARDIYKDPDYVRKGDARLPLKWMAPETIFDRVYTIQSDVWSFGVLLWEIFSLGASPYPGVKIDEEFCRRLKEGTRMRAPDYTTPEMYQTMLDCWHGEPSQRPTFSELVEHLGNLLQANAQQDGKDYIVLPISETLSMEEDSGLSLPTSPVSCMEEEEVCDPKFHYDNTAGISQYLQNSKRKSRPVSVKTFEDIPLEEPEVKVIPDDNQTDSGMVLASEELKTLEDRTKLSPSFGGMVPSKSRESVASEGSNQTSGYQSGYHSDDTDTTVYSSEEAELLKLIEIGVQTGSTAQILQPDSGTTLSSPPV

Ephrin type-A receptor 2 = Ephrin type-A receptor 2 (Homo sapiens, UniProt P29317);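 further: EPHA2 tested as one member of a kinome-wide kinase panel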
[12] = target: T2, Dual specificity tyrosine-phosphorylation-regulated kinase 4 (Homo sapiens, UniProt Q9NR20)
T2 sequence (Q9NR20 whole entry): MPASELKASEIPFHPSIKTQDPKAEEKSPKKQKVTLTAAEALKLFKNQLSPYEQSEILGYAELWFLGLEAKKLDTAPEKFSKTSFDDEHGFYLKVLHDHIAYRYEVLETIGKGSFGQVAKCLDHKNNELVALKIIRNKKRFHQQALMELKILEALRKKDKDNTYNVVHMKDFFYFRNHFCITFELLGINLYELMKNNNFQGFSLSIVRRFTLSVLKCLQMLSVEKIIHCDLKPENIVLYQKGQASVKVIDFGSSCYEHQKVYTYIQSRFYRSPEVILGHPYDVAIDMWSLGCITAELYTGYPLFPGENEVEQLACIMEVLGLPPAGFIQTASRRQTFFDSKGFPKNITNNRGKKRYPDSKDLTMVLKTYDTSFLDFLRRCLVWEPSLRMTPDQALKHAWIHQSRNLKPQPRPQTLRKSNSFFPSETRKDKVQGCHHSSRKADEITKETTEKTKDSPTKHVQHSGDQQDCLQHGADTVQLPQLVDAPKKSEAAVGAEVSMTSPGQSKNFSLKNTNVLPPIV

[13] = target: T3, cAMP-dependent protein kinase catalytic subunit PRKX (Homo sapiens, UniProt P51817)
T3 sequence (P51817 whole entry): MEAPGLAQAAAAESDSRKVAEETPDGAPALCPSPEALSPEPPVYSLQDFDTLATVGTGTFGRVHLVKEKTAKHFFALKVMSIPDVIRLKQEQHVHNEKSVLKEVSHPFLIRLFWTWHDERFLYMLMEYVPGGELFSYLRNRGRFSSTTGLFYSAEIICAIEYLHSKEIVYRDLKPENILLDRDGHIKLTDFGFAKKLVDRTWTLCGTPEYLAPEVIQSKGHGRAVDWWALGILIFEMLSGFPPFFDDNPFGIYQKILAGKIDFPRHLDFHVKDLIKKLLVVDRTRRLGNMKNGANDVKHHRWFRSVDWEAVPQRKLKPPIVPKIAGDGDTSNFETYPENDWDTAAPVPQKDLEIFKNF

[14] = target: Mitogen-activated protein kinase kinase kinase kinase 5 (Homo sapiens, UniProt Q9Y4K4);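 further: measured as one member of a kinome-spanning kinase panel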
Chain of Mitogen-activated protein kinase kinase kinase kinase 5 (Q9Y4K4 whole entry): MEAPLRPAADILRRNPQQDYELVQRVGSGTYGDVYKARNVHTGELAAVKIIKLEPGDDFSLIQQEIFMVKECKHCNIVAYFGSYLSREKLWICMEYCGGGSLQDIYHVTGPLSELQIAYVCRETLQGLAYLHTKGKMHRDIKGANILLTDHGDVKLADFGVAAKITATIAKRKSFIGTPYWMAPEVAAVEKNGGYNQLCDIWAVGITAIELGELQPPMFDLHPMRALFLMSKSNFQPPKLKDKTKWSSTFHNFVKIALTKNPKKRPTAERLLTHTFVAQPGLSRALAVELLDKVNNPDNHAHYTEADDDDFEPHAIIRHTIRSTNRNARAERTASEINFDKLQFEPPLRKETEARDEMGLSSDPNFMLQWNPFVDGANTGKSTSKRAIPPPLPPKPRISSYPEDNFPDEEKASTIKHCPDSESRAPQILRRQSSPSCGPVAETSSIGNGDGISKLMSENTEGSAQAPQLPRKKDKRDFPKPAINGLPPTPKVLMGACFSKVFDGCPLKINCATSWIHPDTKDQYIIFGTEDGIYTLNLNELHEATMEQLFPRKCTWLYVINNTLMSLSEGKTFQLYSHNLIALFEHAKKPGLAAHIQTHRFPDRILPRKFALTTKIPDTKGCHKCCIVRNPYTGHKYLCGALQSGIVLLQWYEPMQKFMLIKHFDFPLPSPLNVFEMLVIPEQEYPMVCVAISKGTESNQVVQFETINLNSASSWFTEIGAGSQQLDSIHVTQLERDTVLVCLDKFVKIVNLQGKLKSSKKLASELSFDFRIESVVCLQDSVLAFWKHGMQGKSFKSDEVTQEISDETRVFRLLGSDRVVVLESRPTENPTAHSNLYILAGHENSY

[15] = target: Serine/threonine-protein kinase DCLK1 (Homo sapiens, UniProt O15075);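 further: affinity for DCLK1 (listed as DCAMKL1) measured as one member of a kinome-wide kinase profiling panel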
[16] = target: Glycogen synthase kinase-3 beta (Homo sapiens, UniProt P49841);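 further: value comes from a broad kinome profiling panel, with GSK3B as the panel member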
Chain of Glycogen synthase kinase-3 beta (P49841 whole entry): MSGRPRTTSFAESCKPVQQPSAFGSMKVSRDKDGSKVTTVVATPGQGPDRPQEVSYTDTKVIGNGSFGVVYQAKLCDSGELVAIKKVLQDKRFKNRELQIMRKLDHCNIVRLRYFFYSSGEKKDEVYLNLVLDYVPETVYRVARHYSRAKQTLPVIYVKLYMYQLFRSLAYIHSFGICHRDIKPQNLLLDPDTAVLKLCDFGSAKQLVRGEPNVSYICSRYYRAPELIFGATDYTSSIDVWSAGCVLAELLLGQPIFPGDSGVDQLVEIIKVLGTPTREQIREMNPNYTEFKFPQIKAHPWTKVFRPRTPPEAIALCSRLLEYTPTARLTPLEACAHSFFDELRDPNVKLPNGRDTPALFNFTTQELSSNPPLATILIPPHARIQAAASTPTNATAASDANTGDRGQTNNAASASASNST

[17] = target: Receptor tyrosine-protein kinase erbB-4 (Homo sapiens, UniProt Q15303);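 further: ERBB4 member of a kinome-wide kinase profiling panel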
[18] = target: Serine/threonine-protein kinase MRCK alpha (Homo sapiens, UniProt Q5VT25)
[19] = target: Serine/threonine-protein kinase 3 (Homo sapiens, UniProt Q13188);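 further: measured as one member of a kinome-wide kinase panel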

Chain of RAC-gamma serine/threonine-protein kinase (Q9Y243 whole entry): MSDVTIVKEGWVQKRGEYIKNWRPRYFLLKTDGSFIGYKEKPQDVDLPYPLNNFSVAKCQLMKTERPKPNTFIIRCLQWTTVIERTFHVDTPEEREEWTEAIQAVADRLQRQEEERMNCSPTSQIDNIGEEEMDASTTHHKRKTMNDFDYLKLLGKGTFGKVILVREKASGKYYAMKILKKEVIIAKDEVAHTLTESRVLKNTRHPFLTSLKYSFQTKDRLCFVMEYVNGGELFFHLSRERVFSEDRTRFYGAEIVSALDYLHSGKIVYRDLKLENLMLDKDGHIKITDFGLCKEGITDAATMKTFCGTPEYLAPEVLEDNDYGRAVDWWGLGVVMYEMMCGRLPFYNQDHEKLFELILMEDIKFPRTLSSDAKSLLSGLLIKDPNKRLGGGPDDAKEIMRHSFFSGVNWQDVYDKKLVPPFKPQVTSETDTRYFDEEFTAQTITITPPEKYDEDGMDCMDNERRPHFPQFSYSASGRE
Chain of 5'-AMP-activated protein kinase catalytic subunit alpha-1 (Q13131 whole entry): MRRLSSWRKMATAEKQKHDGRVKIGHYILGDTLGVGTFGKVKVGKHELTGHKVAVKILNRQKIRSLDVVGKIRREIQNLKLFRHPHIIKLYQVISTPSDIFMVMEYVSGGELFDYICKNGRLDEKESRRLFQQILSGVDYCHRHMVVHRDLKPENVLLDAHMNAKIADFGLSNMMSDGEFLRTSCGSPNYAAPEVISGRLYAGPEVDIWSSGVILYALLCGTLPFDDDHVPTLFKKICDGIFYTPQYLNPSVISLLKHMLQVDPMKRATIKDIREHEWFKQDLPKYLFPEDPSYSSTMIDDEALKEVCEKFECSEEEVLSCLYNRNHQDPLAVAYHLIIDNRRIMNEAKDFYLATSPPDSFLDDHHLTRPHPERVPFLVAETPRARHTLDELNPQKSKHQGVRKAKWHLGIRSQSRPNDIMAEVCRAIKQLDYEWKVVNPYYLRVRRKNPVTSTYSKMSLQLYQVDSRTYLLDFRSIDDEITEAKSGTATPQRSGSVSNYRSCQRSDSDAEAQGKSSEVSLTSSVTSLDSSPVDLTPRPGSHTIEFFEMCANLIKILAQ

SMILES | Ki [1] | Ki [2] | Ki [3] | Ki [4] | Ki (SRSF protein kinase 1) | Ki [5] | Ki [6] | Ki [7] | Ki [8] | Ki [9] | Ki [10] | Ki [11] | Ki (Ephrin type-A receptor 2) | Ki [12] | Ki [13] | Ki [14] | Ki [15] | Ki [16] | Ki [17] | Ki [18] | also measured
NC(=O)c1cc(-c2ccnc(N)n2)[nH]c1-c1ccc(Cl)cc1Cl | 6310 nM (active) | > 1580 nM (inactive) | 316 nM (active) | > 1580 nM (inactive) | 1260 nM (active) | > 1580 nM (inactive) | > 7940 nM (inactive) | > 3980 nM (inactive) | > 2510 nM (inactive) | 251 nM (active) | > 1580 nM (inactive) | 794 nM (active) | > 3160 nM (inactive) | 10 nM (active) | 1000 nM (active) | > 2510 nM (inactive) | > 10000 nM (inactive) | 6.31 nM (active) | > 3980 nM (inactive) | 1260 nM (active) | pKi [1]: 5.2; pKi [3]: 6.5; pKi (SRSF protein kinase 1): 5.9; pKi [9]: 6.6; pKi [11]: 6.1; pKi [12]: 8; pKi [13]: 6; pKi [16]: 8.2; pKi [18]: 5.9; Ki [19]: > 3160 nM (inactive)
NC(COc1cncc(-c2ccc3c(c2)C(=Cc2ccco2)C(=O)N3)c1)Cc1c[nH]c2ccccc12 (stereo unspecified) | 5.01 nM (active) | 20 nM (active) | 15.8 nM (active) | 1580 nM (active) | 79.4 nM (active) | > 1580 nM (inactive) | 2000 nM (active) | 794 nM (active) | 79.4 nM (active) | 31.6 nM (active) | 1000 nM (active) | 398 nM (active) | > 3160 nM (inactive) | 398 nM (active) | 7.94 nM (active) | 63.1 nM (active) | 1000 nM (active) | 63.1 nM (active) | > 3980 nM (inactive) | 316 nM (active) | Ki [19]: 12.6 nM (active)
